The supplement of paper PMC10627819

Tests used:
B. subtilis 168 [1] = experiment: fitness (endpoint OD595 vs no drug) (fraction); higher = more growth
Summary of the method: (§1)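 Bacterial fitness was scored as optical density at the stationary-phase transition relative to the robust mean of no-drug control wells. Scores are capped at 1. The growth data were OD595 readings every 30 min for 14 h at 37 °C, background-subtracted against the first reading, from 384-well plates inoculated at OD595 0.01 in TSB, LB Lennox or CY.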

S. aureus DSM 20231 [2] = experiment: as above
Summary of the method: as §1

S. pneumoniae D39V [3] = experiment: as above
Summary of the method: as §1

S. aureus Newman [4] = experiment: as above
Summary of the method: as §1

B. subtilis 168 [5] = experiment: Bliss interaction score (quartile over a dose matrix) (fitness difference); higher = more antagonism (negative = synergy)
Summary of the method: (§2)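 Each plate was normalised to the robust mean of its own no-drug wells, using OD595 at entry into stationary phase, with values capped at 1. This normalised growth is the fitness value. The Bliss score is the difference between observed and product-expected fitness, with single-drug fitness inferred from the combination data and quartiles taken over technical, biological and donor/recipient replicates.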

S. aureus DSM 20231 [6] = experiment: as above
Summary of the method: as §2

S. pneumoniae D39V [7] = experiment: as above
Summary of the method: as §2

S. aureus Newman [8] = experiment: as above
Summary of the method: as §2
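Wherever Bliss interaction score (quartile over a dose matrix) is given: first quartile when negative (synergy) and third quartile when positive (antagonism).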

C[C@@H]1O[C@@H]1P(=O)(O)O [Fosfomycin] + COc1c(N2C[C@@H]3CCCN[C@@H]3C2)c(F)cc2c(=O)c(C(=O)O)cn(C3CC3)c12 [Moxifloxacin]
Details	fitness
B. subtilis 168 [1], first compound 1.562 µg/mL, partner 0.0312 µg/mL	0.0743
B. subtilis 168 [1], first compound 1.562 µg/mL, partner 0.0625 µg/mL	0.0627
B. subtilis 168 [1], first compound 1.562 µg/mL, partner 0.125 µg/mL	0.0277
B. subtilis 168 [1], first compound 1.562 µg/mL, partner 2 µg/mL	0.0303
B. subtilis 168 [1], first compound 1.562 µg/mL, partner 4 µg/mL	0.0293
B. subtilis 168 [1], first compound 1.562 µg/mL, partner 8 µg/mL	0.0076
B. subtilis 168 [1], first compound 3.124 µg/mL, partner 0.0312 µg/mL	0.0504
B. subtilis 168 [1], first compound 3.124 µg/mL, partner 0.0625 µg/mL	0.0309
B. subtilis 168 [1], first compound 3.124 µg/mL, partner 0.125 µg/mL	0.0339
B. subtilis 168 [1], first compound 3.124 µg/mL, partner 2 µg/mL	0.033
B. subtilis 168 [1], first compound 3.124 µg/mL, partner 4 µg/mL	0.0332
B. subtilis 168 [1], first compound 3.124 µg/mL, partner 8 µg/mL	0.0176
B. subtilis 168 [1], first compound 6.248 µg/mL, partner 0.0312 µg/mL	0.0469
B. subtilis 168 [1], first compound 6.248 µg/mL, partner 0.0625 µg/mL	0.0265
B. subtilis 168 [1], first compound 6.248 µg/mL, partner 0.125 µg/mL	0.0207
B. subtilis 168 [1], first compound 6.248 µg/mL, partner 2 µg/mL	0.016
B. subtilis 168 [1], first compound 6.248 µg/mL, partner 4 µg/mL	0.0083
B. subtilis 168 [1], first compound 6.248 µg/mL, partner 8 µg/mL	0.0062
S. aureus DSM 20231 [2], first compound 0.781 µg/mL, partner 0.0075 µg/mL	0.629
S. aureus DSM 20231 [2], first compound 0.781 µg/mL, partner 0.015 µg/mL	0.609
S. aureus DSM 20231 [2], first compound 0.781 µg/mL, partner 0.03 µg/mL	0.606
S. aureus DSM 20231 [2], first compound 1.562 µg/mL, partner 0.0075 µg/mL	0.592
S. aureus DSM 20231 [2], first compound 1.562 µg/mL, partner 0.015 µg/mL	0.564
S. aureus DSM 20231 [2], first compound 1.562 µg/mL, partner 0.03 µg/mL	0.538
S. aureus DSM 20231 [2], first compound 3.124 µg/mL, partner 0.0075 µg/mL	0.493
S. aureus DSM 20231 [2], first compound 3.124 µg/mL, partner 0.015 µg/mL	0.455
S. aureus DSM 20231 [2], first compound 3.124 µg/mL, partner 0.03 µg/mL	0.299
S. aureus Newman [4], first compound 0.781 µg/mL, partner 0.0075 µg/mL	0.587
S. aureus Newman [4], first compound 0.781 µg/mL, partner 0.015 µg/mL	0.509
S. aureus Newman [4], first compound 0.781 µg/mL, partner 0.03 µg/mL	0.0675
S. aureus Newman [4], first compound 1.562 µg/mL, partner 0.0075 µg/mL	0.413
S. aureus Newman [4], first compound 1.562 µg/mL, partner 0.015 µg/mL	0.358
S. aureus Newman [4], first compound 1.562 µg/mL, partner 0.03 µg/mL	0.0359
S. aureus Newman [4], first compound 3.124 µg/mL, partner 0.0075 µg/mL	0.0916
S. aureus Newman [4], first compound 3.124 µg/mL, partner 0.015 µg/mL	0.0267
S. aureus Newman [4], first compound 3.124 µg/mL, partner 0.03 µg/mL	0.015
S. pneumoniae D39V [3], first compound 1.25 µg/mL, partner 0.005 µg/mL	0.985
S. pneumoniae D39V [3], first compound 1.25 µg/mL, partner 0.01 µg/mL	0.988
S. pneumoniae D39V [3], first compound 1.25 µg/mL, partner 0.02 µg/mL	0.924
S. pneumoniae D39V [3], first compound 1.25 µg/mL, partner 0.0312 µg/mL	0.139
S. pneumoniae D39V [3], first compound 1.25 µg/mL, partner 0.0625 µg/mL	0.0679
S. pneumoniae D39V [3], first compound 1.25 µg/mL, partner 0.125 µg/mL	0.0548
S. pneumoniae D39V [3], first compound 2.5 µg/mL, partner 0.005 µg/mL	0.93
S. pneumoniae D39V [3], first compound 2.5 µg/mL, partner 0.01 µg/mL	0.983
S. pneumoniae D39V [3], first compound 2.5 µg/mL, partner 0.02 µg/mL	0.903
S. pneumoniae D39V [3], first compound 2.5 µg/mL, partner 0.0312 µg/mL	0.12
S. pneumoniae D39V [3], first compound 2.5 µg/mL, partner 0.0625 µg/mL	0.0706
S. pneumoniae D39V [3], first compound 2.5 µg/mL, partner 0.125 µg/mL	0.0382
S. pneumoniae D39V [3], first compound 5 µg/mL, partner 0.005 µg/mL	0.808
S. pneumoniae D39V [3], first compound 5 µg/mL, partner 0.01 µg/mL	0.88
S. pneumoniae D39V [3], first compound 5 µg/mL, partner 0.02 µg/mL	0.855
S. pneumoniae D39V [3], first compound 5 µg/mL, partner 0.0312 µg/mL	0.106
S. pneumoniae D39V [3], first compound 5 µg/mL, partner 0.0625 µg/mL	0.0921
S. pneumoniae D39V [3], first compound 5 µg/mL, partner 0.125 µg/mL	0.0302

fitness, S. aureus DSM 20231 [2], one replicate
Details	first compound 0.781 µg/mL	first compound 1.562 µg/mL	first compound 3.124 µg/mL
partner 0.06 µg/mL	0.655	0.585	0.465
partner 0.12 µg/mL	0.46	0.403	0.247

Details	Bliss interaction score
B. subtilis 168 [5]	-0.0148
S. aureus DSM 20231 [6]	0.0661
S. aureus Newman [8]	-0.0851
S. pneumoniae D39V [7]	0.0534

C[C@@H]1O[C@@H]1P(=O)(O)O [Fosfomycin] + COc1ccc(C[C@H](N)C(=O)N[C@H]2[C@@H](O)[C@H](n3cnc4c(N(C)C)ncnc43)O[C@@H]2CO)cc1 [Puromycin]
fitness
Details	partner 0.39 µg/mL	partner 0.78 µg/mL	partner 1 µg/mL	partner 1.56 µg/mL	partner 2 µg/mL
B. subtilis 168 [1], first compound 1.562 µg/mL	0.694	0.712	–	0.672	–
B. subtilis 168 [1], first compound 3.124 µg/mL	0.65	0.562	–	0.583	–
B. subtilis 168 [1], first compound 6.248 µg/mL	0.407	0.354	–	0.378	–
S. aureus DSM 20231 [2], first compound 0.781 µg/mL	0.799	0.776	–	0.829	–
S. aureus DSM 20231 [2], first compound 1.562 µg/mL	0.631	0.662	–	0.632	–
S. aureus DSM 20231 [2], first compound 3.124 µg/mL	0.491	0.541	–	0.514	–
S. aureus Newman [4], first compound 0.781 µg/mL	0.55	0.579	–	0.612	–
S. aureus Newman [4], first compound 1.562 µg/mL	0.463	0.495	–	0.516	–
S. aureus Newman [4], first compound 3.124 µg/mL	0.134	0.149	–	0.108	–
S. pneumoniae D39V [3], first compound 1.25 µg/mL	–	–	0.974	–	0.916
S. pneumoniae D39V [3], first compound 2.5 µg/mL	–	–	0.982	–	0.89
S. pneumoniae D39V [3], first compound 5 µg/mL	–	–	0.902	–	0.898

fitness, S. aureus DSM 20231 [2], one replicate
Details	first compound 0.781 µg/mL	first compound 1.562 µg/mL	first compound 3.124 µg/mL
partner 3.12 µg/mL	0.828	0.733	0.611
partner 6.24 µg/mL	0.707	0.488	0.329

Details	Bliss interaction score
B. subtilis 168 [5]	0.0393
S. aureus DSM 20231 [6]	0.047
S. aureus Newman [8]	-0.0684
S. pneumoniae D39V [7]	0.116
